In the NIST ThermoML archive (doi:10.1016/j.jct.2013.04.021):
Numbers after ± are expanded uncertainties.

Assay: xn = mol fraction of the nth substance listed
Details: 101 kPa, Liquid; for mass density: Vibrating tube method; for speed of sound: fixed-path interferometer; for viscosity: Capillary tube (Ostwald / Ubbelohde) method

CCCCOCCO [2-butoxyethan-1-ol] + CCCCCCO
Details	mass density [kg/m3]	speed of sound [m/s]	viscosity [mPa·s]
293.15 K, x1 = 0.0535	823.637 ± 0.24	1320 ± 1.6	–
293.15 K, x1 = 0.1046	827.82 ± 0.24	1319.4 ± 1.6	–
293.15 K, x1 = 0.1546	831.917 ± 0.24	1319.1 ± 1.6	–
293.15 K, x1 = 0.2054	836.077 ± 0.24	1318.8 ± 1.6	–
293.15 K, x1 = 0.253	839.982 ± 0.24	1318.5 ± 1.6	–
293.15 K, x1 = 0.2999	843.819 ± 0.24	1318.3 ± 1.6	–
293.15 K, x1 = 0.4044	852.353 ± 0.24	1318.3 ± 1.6	–
293.15 K, x1 = 0.5039	860.457 ± 0.24	1318.5 ± 1.6	–
293.15 K, x1 = 0.5932	867.724 ± 0.24	1318.9 ± 1.6	–
293.15 K, x1 = 0.7003	876.414 ± 0.24	1319.6 ± 1.6	–
293.15 K, x1 = 0.8019	884.63 ± 0.24	1320.7 ± 1.6	–
293.15 K, x1 = 0.8545	888.867 ± 0.24	1321.4 ± 1.6	–
293.15 K, x1 = 0.8987	892.418 ± 0.24	1322 ± 1.6	–
293.15 K, x1 = 0.9522	896.698 ± 0.24	1322.8 ± 1.6	–
298.15 K, x1 = 0.0535	820.01 ± 0.24	1303.1 ± 1.5	4.359 ± 0.096
298.15 K, x1 = 0.1046	824.093 ± 0.24	1302.6 ± 1.5	4.133 ± 0.091
298.15 K, x1 = 0.1546	828.161 ± 0.24	1302.2 ± 1.5	4.004 ± 0.088
298.15 K, x1 = 0.2054	832.312 ± 0.24	1301.8 ± 1.5	3.821 ± 0.084
298.15 K, x1 = 0.253	836.221 ± 0.24	1301.6 ± 1.5	3.691 ± 0.081
298.15 K, x1 = 0.2999	840.066 ± 0.24	1301.4 ± 1.5	3.616 ± 0.08
298.15 K, x1 = 0.4044	848.606 ± 0.24	1301.3 ± 1.5	3.464 ± 0.077
298.15 K, x1 = 0.5039	856.686 ± 0.24	1301.5 ± 1.5	3.305 ± 0.073
298.15 K, x1 = 0.5932	863.892 ± 0.24	1301.8 ± 1.5	3.139 ± 0.069
298.15 K, x1 = 0.7003	872.492 ± 0.24	1302.6 ± 1.5	3.046 ± 0.067
298.15 K, x1 = 0.8019	880.623 ± 0.24	1303.6 ± 1.5	2.996 ± 0.066
298.15 K, x1 = 0.8545	884.811 ± 0.24	1304.3 ± 1.5	2.908 ± 0.063
298.15 K, x1 = 0.8987	888.334 ± 0.24	1305 ± 1.5	2.897 ± 0.063
298.15 K, x1 = 0.9522	892.569 ± 0.24	1305.7 ± 1.5	2.871 ± 0.062
303.15 K, x1 = 0.0535	816.368 ± 0.24	1286.3 ± 1.5	3.706 ± 0.082
303.15 K, x1 = 0.1046	820.503 ± 0.24	1285.8 ± 1.5	3.56 ± 0.078
303.15 K, x1 = 0.1546	824.557 ± 0.24	1285.5 ± 1.5	3.421 ± 0.075
303.15 K, x1 = 0.2054	828.676 ± 0.24	1285.2 ± 1.5	3.3 ± 0.072
303.15 K, x1 = 0.253	832.536 ± 0.24	1284.9 ± 1.5	3.19 ± 0.07
303.15 K, x1 = 0.2999	836.324 ± 0.24	1284.8 ± 1.5	3.1 ± 0.068
303.15 K, x1 = 0.4044	844.739 ± 0.24	1284.7 ± 1.5	2.916 ± 0.064
303.15 K, x1 = 0.5039	852.713 ± 0.24	1284.8 ± 1.5	2.781 ± 0.061
303.15 K, x1 = 0.5932	859.852 ± 0.24	1285.2 ± 1.5	2.694 ± 0.059
303.15 K, x1 = 0.7003	868.399 ± 0.24	1285.9 ± 1.5	2.631 ± 0.058
303.15 K, x1 = 0.8019	876.485 ± 0.24	1286.8 ± 1.5	2.583 ± 0.057
303.15 K, x1 = 0.8545	880.662 ± 0.24	1287.4 ± 1.5	2.573 ± 0.056
303.15 K, x1 = 0.8987	884.162 ± 0.24	1288 ± 1.5	2.595 ± 0.056
303.15 K, x1 = 0.9522	888.376 ± 0.24	1288.7 ± 1.5	2.613 ± 0.057
308.15 K, x1 = 0.0535	812.694 ± 0.24	1269.6 ± 1.5	3.243 ± 0.071
308.15 K, x1 = 0.1046	816.794 ± 0.24	1269.2 ± 1.5	3.12 ± 0.068
308.15 K, x1 = 0.1546	820.816 ± 0.24	1268.8 ± 1.5	3.006 ± 0.066
308.15 K, x1 = 0.2054	824.902 ± 0.24	1268.6 ± 1.5	2.896 ± 0.064
308.15 K, x1 = 0.253	828.737 ± 0.24	1268.3 ± 1.5	2.807 ± 0.062
308.15 K, x1 = 0.2999	832.499 ± 0.24	1268.2 ± 1.5	2.736 ± 0.06
308.15 K, x1 = 0.4044	840.855 ± 0.24	1268.1 ± 1.5	2.597 ± 0.056
308.15 K, x1 = 0.5039	848.772 ± 0.24	1268.2 ± 1.5	2.499 ± 0.054
308.15 K, x1 = 0.5932	855.859 ± 0.24	1268.6 ± 1.5	2.43 ± 0.053
308.15 K, x1 = 0.7003	864.345 ± 0.24	1269.2 ± 1.5	2.367 ± 0.051
308.15 K, x1 = 0.8019	872.393 ± 0.24	1270.1 ± 1.5	2.311 ± 0.05
308.15 K, x1 = 0.8545	876.541 ± 0.24	1270.6 ± 1.5	2.284 ± 0.05
308.15 K, x1 = 0.8987	880.024 ± 0.24	1271.1 ± 1.5	2.275 ± 0.05
308.15 K, x1 = 0.9522	884.199 ± 0.24	1271.8 ± 1.5	2.242 ± 0.05
313.15 K, x1 = 0.0535	809.018 ± 0.24	1253 ± 1.5	–
313.15 K, x1 = 0.1046	813.092 ± 0.24	1252.7 ± 1.5	–
313.15 K, x1 = 0.1546	817.077 ± 0.24	1252.4 ± 1.5	–
313.15 K, x1 = 0.2054	821.127 ± 0.24	1252.2 ± 1.5	–
313.15 K, x1 = 0.253	824.921 ± 0.24	1252 ± 1.5	–
313.15 K, x1 = 0.2999	828.653 ± 0.24	1251.9 ± 1.5	–
313.15 K, x1 = 0.4044	836.942 ± 0.24	1251.8 ± 1.5	–
313.15 K, x1 = 0.5039	844.805 ± 0.24	1251.9 ± 1.5	–
313.15 K, x1 = 0.5932	851.852 ± 0.24	1252.2 ± 1.5	–
313.15 K, x1 = 0.7003	860.279 ± 0.24	1252.7 ± 1.5	–
313.15 K, x1 = 0.8019	868.245 ± 0.24	1253.4 ± 1.5	–
313.15 K, x1 = 0.8545	872.354 ± 0.24	1253.9 ± 1.5	–
313.15 K, x1 = 0.8987	875.803 ± 0.24	1254.3 ± 1.5	–
313.15 K, x1 = 0.9522	879.956 ± 0.24	1254.9 ± 1.5	–
